Literature values as cited in PMC2840068 (Vision research, 2009).

How the values were obtained:
[1] = tested on: VEGF; conditions: clinical trials in AMD patients; ref Gragoudas et al., 2004
[2] = tested on: VEGF; conditions: ref Chang et al., 2007, Rosenfeld et al., 2006

Molecule | therapeutic dose response [1] | AMD patients’ vision [2]
pegaptanib | inverse therapeutic dose response | –
ranibizumab: anti-VEGF antibody (ranibizumab) (antibody, chains of the INN, looked up, V domains shown) VH: EVQLVESGGGLVQPGGSLRLSCAASGYDFTHYGMNWVRQAPGKGLEWVGWINTYTGEPTYAADFKRRFTFSLDTSKSTAYLQMNSLRAEDTAVYYCAKYPYYYGTSHWYFDVWGQGTLVTVSS VL: DIQLTQSPSSLSASVGDRVTITCSASQDISNYLNWYQQKPGKAPKVLIYFTSSLHSGVPSRFSGSGSGTDFTLTISSLQPEDFATYYCQQYSTVPWTFGQGTKVEIK | – | improvement of AMD patients’ vision
